Laboratory results published in patent publication US8048875B1, “Topical pharmaceutical composition comprising a cholinergic agent or a calcium channel blocker” (S.L.A. Pharma AG, priority 1997, dated 2011).
Read-outs that look alike come from different tables or passages of the source.

Key:
[1] = after 1 hour, patients with anal fissures; cited from earlier work
[2] = Dose ranging study of bethanechol cream in healthy volunteers, anal manometry; format: in vivo, human; conditions: higher concentrations produced no additional effect
Excerpt: Bethanechol cream at concentrations of 0.05%, 0.1%, 0.5% and 1% w/w bethanechol were made up in accordance with Example 1. The compositions were studied following initial experimentation in an open way to determine a clinically effective dose range. […] Maximal effect was produced by application of 0.1% bethanechol and higher concentrations of the cream produced no additional effect. At 0.1% w/w bethanechol, the mean resting pressure was reduced from about 110 cm to about 85 cm H2O (about 25% decrease). A typical ‘one inch’ application of this cream from the tube is equivalent to 400 mcg of bethanechol.

[3] = topical use; cited from earlier work
[4] = higher concentrations did not produce an additional effect
[5] = Study of Example 4 repeated using oral diltiazem

SMILES: O=C(NC1CCN(CCc2c[nH]c3ccccc23)CC1)c1ccccc1 [indoramin]
- reduction of maximum resting pressures in the anal canal [1]: 35.8%

SMILES: CC(C[N+](C)(C)C)OC(N)=O (stereo not shown) [bethanechol]
- concentration producing the maximal effect on resting anal pressure [2]: 0.1 % w/w

SMILES: O=[N+]([O-])OCC(CO[N+](=O)[O-])O[N+](=O)[O-] [glyceryl trinitrate]
- effect on internal anal resting pressure [3]: reduces the internal anal resting pressure

SMILES: COc1ccc([C@@H]2Sc3ccccc3N(CCN(C)C)C(=O)[C@@H]2OC(C)=O)cc1 [diltiazem]
- concentration producing the maximal effect on resting anal pressure [4]: about 2 % w/w
- effect on mean anal resting pressure ([5]; 60 mg oral once a day): no notable effect
- patients who noticed postural dizziness ([5]; 60 mg oral twice a day): two
- mean anal resting pressure reduced by ([5]; 60 mg oral twice a day, P=0.008): 17%
